Consider four compounds from EP1289977B1, “TRITERPENOID DERIVATIVES AND THEIR USE AS ANTIPROLIFERATIVE AGENTS” (Univerzita palackeho V Olomouci, priority 2000, dated 2001).

Common to all, as to assay type: cell-based
One assay has as its system B16. The assay is described as follows: MTT cytotoxicity assay, B16. The following applies: B16, mouse melanoma, 72 hours, read-out: TCS50. From the text: (§1) One of the parameters used as the basis for colorimetric assays is the metabolic activity of viable cells. For example, a microtiter assay which uses the tetrazolium salt MTT is now widely used to quantitate cell proliferation and cytotoxicity [Hajduch M, Mihal V, Minarik J, Fáber E, ? afárová M, Weigl E, Antálek P.: Cytotechnology, 1996,19,243-245]. For instance, this assay is used in drug screening programs and in chemosensitivity testing. Because tetrazolium salts are cleaved only by metabolically active cells, these assays exclusively detect viable cells. In the case of the MTT assay, yellow soluble tetrazolium salt is reduced to a coloured water-insoluble formazan salt. After it is solubilized, the formazan formed can easily and rapidly be quantified in a conventional ELISA plate reader at 570 nm (maximum absorbancy). The quantity of reduced formazan corresponds to the number of vital cells in the culture. […]
(§2) The cell suspensions that were prepared and diluted according to the particular cell type and the expected target cell density (2.500-30.000 cells per well based on cell growth characteristics) were added by pipette (80 µl) into 96/well microtiter plates. […] Usually, test compounds were evaluated at six 4-fold dilutions. […] The optical density (OD) was measured at 540nm with the Labsystem iEMS Reader MF (UK). […]
(Formazan colour is commonly taken as a measure of viable cells.)

The test system of another assay is B16F. The assay is described as follows: MTT cytotoxicity assay, B16F. Particulars: mouse melanoma, metastatic, 72 hours, read-out: TCS50.
Text: as §1, §2

Another assay deals with SW620. The assay is described as follows: MTT cytotoxicity assay, SW620. Particulars: SW-620, SW620, human colon cancer, metastasis, 72 hours, read-out: TCS50.
Text: as §1, §2

Another assay has as its system U87MG. The assay is described as follows: MTT cytotoxicity assay, U87MG. Particulars: U-87 MG, human glioblastoma, 72 hours, read-out: TCS50.
Text: as §1, §2

The test system of the next assay is HepG2. Put plainly: MTT cytotoxicity assay, HepG2. Particulars: HepG2, human hepatocellular carcinoma, 72 hours, read-out: TCS50.
Text: as §1, §2

The subject of a further assay is A549. The assay is described as follows: MTT cytotoxicity assay, A549. Particulars: A549, human lung adenocarcinoma, 72 hours, read-out: TCS50.
Text: as §1, §2

The next assay concerns MCF-7. Put plainly: MTT cytotoxicity assay, MCF-7. The following applies: MCF7, MCF-7, human breast cancer, estrogen dependent, p53+/+, Rb +/+, 72 hours, read-out: TCS50.
Text: as §1, §2

A further assay has as its system U20S. Put plainly: MTT cytotoxicity assay, U20S. The following applies: human osteosarcoma, p53+/-, Rb +/-, 72 hours, read-out: TCS50.
Text: as §1, §2

The subject of another assay is Saos2. The assay is described as follows: MTT cytotoxicity assay, Saos2. Particulars: SAOS-2, Saos2, human osteosarcoma, p53-/-, Rb-/-, 72 hours, read-out: TCS50.
Text: as §1, §2

The subject of a further assay is BT549. The assay is described as follows: MTT cytotoxicity assay, BT549. The following applies: BT-549, BT549, human breast cancer, p53mut/mut, 72 hours, read-out: TCS50.
Text: as §1, §2

Another assay relates to MDA-MB-238. The assay is described as follows: MTT cytotoxicity assay, MDA-MB-238. Particulars: MDA-MB-238, human breast cancer, estrogen independent, p53mut/mut, 72 hours, read-out: TCS50.
Text: as §1, §2

For the next assay, the system named is LNCaP. Put plainly: MTT cytotoxicity assay, LNCaP. The following applies: human prostate cancer, androgen dependent, 72 hours, read-out: TCS50.
Text: as §1, §2

Another assay deals with DU145. The assay is described as follows: MTT cytotoxicity assay, DU145. Particulars: DU-145, DU145, human prostate cancer, androgen independent, Rb-/-, 72 hours, read-out: TCS50.
Text: as §1, §2

In another assay the test system is HT-29. Put plainly: MTT cytotoxicity assay, HT-29. Particulars: HT-29, human colon cancer, 72 hours, read-out: TCS50.
Text: as §1, §2

In another assay the test system is OVCAR-3. The assay is described as follows: MTT cytotoxicity assay, OVCAR-3. The following applies: OVCAR-3, human ovarian cancer, 72 hours, read-out: TCS50.
Text: as §1, §2

The subject of another assay is Caco-2. The assay is described as follows: MTT cytotoxicity assay, Caco-2. Particulars: Caco-2, human colon cancer, 72 hours, read-out: TCS50.
Text: as §1, §2

For the next assay, the system named is MEL-3. The assay is described as follows: MTT cytotoxicity assay, MEL-3. Particulars: MEL-3, human melanoma, 72 hours, read-out: TCS50.
Text: as §1, §2

In the next assay the test system is human normal lymphocytes. Put plainly: MTT cytotoxicity assay, normal lymphocytes. The following applies: Lymphocyte, human normal lymphocytes (non-malignant), 72 hours, read-out: TCS50.
Text: as §1, §2

A further assay has as its system NIH3T3. The assay is described as follows: MTT cytotoxicity assay, NIH3T3. Particulars: NIH3T3, mouse immortalised fibroblasts (non-malignant), 72 hours, read-out: TCS50.
Text: as §1, §2

Another assay concerns K562. The assay is described as follows: MTT cytotoxicity assay, K562. Particulars: K562, human chronic myelogenous leukemia, 72 hours, read-out: TCS50.
Text: as §1, §2

A further assay has as its system K562-CdA. The assay is described as follows: MTT cytotoxicity assay, K562-CdA. The following applies: human chronic myelogenous leukemia, cladrubin resistant, 72 hours, read-out: TCS50.
Text: as §1, §2

The test system of another assay is K562-GEM. The assay is described as follows: MTT cytotoxicity assay, K562-GEM. Particulars: human chronic myelogenous leukemia, gemcitabin resistant, 72 hours, read-out: TCS50.
Text: as §1, §2

Another assay has as its system K562-ARA-C. The assay is described as follows: MTT cytotoxicity assay, K562-ARA-C. The following applies: human chronic myelogenous leukemia, cytarabin resistant, 72 hours, read-out: TCS50.
Text: as §1, §2

In a further assay the test system is K562-FLUD. Put plainly: MTT cytotoxicity assay, K562-FLUD. Particulars: human chronic myelogenous leukemia, fludarabin resistant, 72 hours, read-out: TCS50.
Text: as §1, §2

The subject of another assay is CEM. Put plainly: MTT cytotoxicity screening assay, CEM. Particulars: CCRF-CEM, human T-lymphoblastic leukemia, 72 hours, read-out: TCS50. From the text:
One of the parameters used as the basis for colorimetric assays is the metabolic activity of viable cells. For example, a microtiter assay which uses the tetrazolium salt MTT is now widely used to quantitate cell proliferation and cytotoxicity [Hajduch M, Mihal V, Minarik J, Fáber E, ? afárová M, Weigl E, Antálek P.: Cytotechnology, 1996,19,243-245]. For instance, this assay is used in drug screening programs and in chemosensitivity testing. Because tetrazolium salts are cleaved only by metabolically active cells, these assays exclusively detect viable cells. In the case of the MTT assay, yellow soluble tetrazolium salt is reduced to a coloured water-insoluble formazan salt. After it is solubilized, the formazan formed can easily and rapidly be quantified in a conventional ELISA plate reader at 570 nm (maximum absorbancy). The quantity of reduced formazan corresponds to the number of vital cells in the culture.
Human T-lymphoblastic leukaemia cell line CEM was used for routine screening of these compounds. […] The cells were maintained in Nunc/Coming 80 cm^2 plastic tissue culture flasks and cultured in cell culture medium (DMEM with 5 g/l glucose, 2mM glutamine, 100 U/ml penicillin, 100 µg/ml streptomycin, 10% foetal calf serum and sodium bicarbonate). Individual compounds were dissolved in 10% dimethylsulfoxide/saline, pH 8.0.
The cell suspensions that were prepared and diluted according to the particular cell type and the expected target cell density (2.500-30.000 cells per well based on cell growth characteristics) were added by pipette (80 µl) into 96/well microtiter plates. Inoculates were allowed a pre-incubation period of 24 hours at 37°C and 5% CO2 for stabilisation. Four-fold dilutions of the intended test concentration were added at time zero in 20 µl aliquots to the microtiter plate wells. Usually, test compounds were evaluated at six 4-fold dilutions. In routine testing, the highest well concentration was 250 µM, but it may differ, depending on the agent. All drug concentrations were examined in duplicate. Incubations of cells with the test compounds lasted for 72 hours at 37°C, in 5% CO2 atmosphere and 100% humidity. At the end of the incubation period, the cells were assayed by using the MTT assay. Ten microliters of the MTT stock solution were pipetted into each well and incubated further for 1-4 hours. […] The optical density (OD) was measured at 540nm with the Labsystem iEMS Reader MF (UK). The tumour cell survival (TCS) was calculated using the following equitation: TCS= (ODdrug exposed well /mean ODcontrol wells) x 100%. The TCS50 value, the drug concentration lethal to 50% of the tumour cells, was calculated from the obtained dose response curves. […]

For a further assay, the system named is CEM-DNR 1/C2. The assay is described as follows: MTT cytotoxicity assay, CEM-DNR 1/C2. Particulars: CEM-DNR 1/C2, human T-lymphoblastic leukemia, daunorubicin resistant, 72 hours, read-out: TCS50.
Text: as §1, §2

The next assay has as its system CEM-DNR bulk. The assay is described as follows: MTT cytotoxicity assay, CEM-DNR bulk. Particulars: human T-lymphoblastic leukemia, daunorubicin resistant, 72 hours, read-out: TCS50.
Text: as §1, §2

In another assay the test system is CEM-VCR 1/F3. The assay is described as follows: MTT cytotoxicity assay, CEM-VCR 1/F3. The following applies: CEM-VCR 1/F3, human T-lymphoblastic leukemia, vincristin resistant, 72 hours, read-out: TCS50.
Text: as §1, §2

The test system of a further assay is CEM-VCR 3/D5. The assay is described as follows: MTT cytotoxicity assay, CEM-VCR 3/D5. The following applies: CEM-VCR 3/D5, human T-lymphoblastic leukemia, vincristin resistant, 72 hours, read-out: TCS50.
Text: as §1, §2

For the next assay, the system named is CEM-VCR bulk. Put plainly: MTT cytotoxicity assay, CEM-VCR bulk. Particulars: human T-lymphoblastic leukemia, vincristin resistant, 72 hours, read-out: TCS50.
Text: as §1, §2

In the case of `CC1(C)CC[C@]23CC[C@]4(C)[C@H](CC[C@@H]5[C@@]6(C)CC(Br)C(=O)C(C)(C)[C@@H]6CC[C@]54C)[C@H]2[C@H]1OC3` (stereo partly drawn) [III.3, 2-brom-3-oxo-19β,28β-epoxy-18α-oleanan], the IC50 is 2.1 µM in the assay on B16; 4.7 µM with B16F; 1.2 µM in the assay on SW620; 5.1 µM in the assay with U87MG; 1700 nM in the assay with HepG2; 1 µM in the assay with A549. Further, the IC50 with MCF-7 was 2.3 µM; in the assay with U20S, 1.5 µM; in the assay with Saos2 it was 1.8 µM; in the assay on BT549 it was 2 µM; in the assay on MDA-MB-238, 1.4 µM; in the assay with LNCaP, 1.1 µM. Moreover, the IC50 is 0.8 µM in the assay on DU145; 1.6 µM in the assay on HT-29; 1 µM in the assay on OVCAR-3; 3 µM in the assay on Caco-2; 1300 nM in the assay on MEL-3; 13 µM in the assay with human normal lymphocytes. The IC50 in the assay with NIH3T3 was found to be 7.2 µM; with K562, 0.2 µM; in the assay on K562-CdA it was 0.3 µM; in the assay on K562-GEM it was 900 nM; in the assay on K562-ARA-C, 0.6 µM; in the assay with K562-FLUD, 0.4 µM. Besides, the IC50 in the assay on CEM stood at 1 µM; in the assay on CEM-DNR 1/C2, 0.6 µM; in the assay with CEM-DNR bulk, 1.1 µM; in the assay with CEM-VCR 1/F3 it was 3.3 µM; in the assay on CEM-VCR 3/D5, 2.9 µM; with CEM-VCR bulk, 2.5 µM.
For `CC1(C)CC[C@]23CC[C@]4(C)[C@H](CC[C@@H]5[C@@]6(C)CC(N=[N+]=[N-])C(=O)C(C)(C)[C@@H]6CC[C@]54C)[C@H]2[C@H]1OC3` (stereo partly drawn) [III.10, 2-azido-3-oxo-19β,28β-epoxy-18α-oleanan], the IC50 in the assay on CEM came to 13 µM.
Take `C=C(C)[C@@H]1CC[C@]2(C(=O)O)CC[C@]3(C)[C@H](CC[C@@H]4[C@@]5(C)CC[C@H](O)C(C)(C)[C@@H]5CC[C@]43C)[C@@H]12` [Betulinic Acid, betulinic acid, reference compound]: the IC50 in the assay on B16 was 36 µM; with B16F, 4.6 µM; with SW620 it was 250 µM; in the assay on U87MG, 250 µM; with HepG2 it was 3600 nM; in the assay with A549, 236 µM. For the same compound, the IC50 with MCF-7 stood at 194 µM; with U20S it was 250 µM; in the assay with Saos2, 250 µM; in the assay on BT549 it was 250 µM; in the assay with MDA-MB-238 it was 195 µM; with LNCaP, 244 µM. Also, the IC50 in the assay with DU145 was 241 µM; in the assay on HT-29 it was 250 µM; in the assay with OVCAR-3 it was 164 µM; in the assay with Caco-2 it was 20 µM; in the assay on MEL-3, 2700 nM; in the assay with human normal lymphocytes, 250 µM. The IC50 in the assay with NIH3T3, in the assay with K562, in the assay on K562-CdA, in the assay with K562-ARA-C, with K562-FLUD and in the assay with CEM was 250 µM each time. Also, the IC50 amounted to 250 µM in the assay on CEM-DNR 1/C2; 250 µM in the assay on CEM-DNR bulk; 19 µM in the assay on CEM-VCR 1/F3; 24 µM in the assay with CEM-VCR 3/D5; 69 µM in the assay with CEM-VCR bulk.
Consider `CC1(C)CC[C@]23CC[C@]4(C)[C@H](CC[C@@H]5[C@@]6(C)CC(F)(F)C(=O)C(C)(C)[C@@H]6CC[C@]54C)[C@H]2[C@H]1OC3` [III.14, 19β,28β-epoxy-2,2-difluoro-18α-oleanan-3-one], for which the IC50 in the assay with CEM was determined as 170 µM.
